Biological target: GABAC receptor ρ1 subunit (homomeric) (Homo sapiens, UniProt P24046)
Assay: two-electrode voltage clamp in Xenopus oocytes, inhibition of GABA
Assay type: cell-based

Sequence of GABAC receptor ρ1 subunit (homomeric) (P24046 22-479): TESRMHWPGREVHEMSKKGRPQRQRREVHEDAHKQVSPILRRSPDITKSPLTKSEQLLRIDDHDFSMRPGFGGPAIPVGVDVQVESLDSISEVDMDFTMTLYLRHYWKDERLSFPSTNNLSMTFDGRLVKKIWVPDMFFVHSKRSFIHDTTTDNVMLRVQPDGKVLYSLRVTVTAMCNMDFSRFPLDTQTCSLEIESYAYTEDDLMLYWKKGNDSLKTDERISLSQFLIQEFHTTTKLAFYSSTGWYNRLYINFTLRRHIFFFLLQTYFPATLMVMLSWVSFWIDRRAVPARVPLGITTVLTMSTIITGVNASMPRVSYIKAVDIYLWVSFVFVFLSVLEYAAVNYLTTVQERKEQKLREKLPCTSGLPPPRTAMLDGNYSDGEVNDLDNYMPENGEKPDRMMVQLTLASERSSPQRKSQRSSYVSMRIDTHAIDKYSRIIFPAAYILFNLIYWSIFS

- IC50: 28.9 ± 2.8 µM
Structure (SMILES): Oc1ccc(/C=C/c2cc(O)cc(O)c2)cc1 [Res, Resveratrol]

Reference: article PMC3634096 (The Korean Journal of Physiology & Pharmacology : …, 2013)
